We go through 17 compounds from PMC12521546 (Nature Communications, 2025).

For test [1], the system named is C. neoformans reference strain H99. Briefly: MIC, modified CLSI micro-broth dilution, H99. Type of test: cell-based, Cryptococcus neoformans.
The target in test [2] is T1, CnAcs1 (Cryptococcus neoformans, UniProt J9VFT1).
T1 sequence (J9VFT1 1-680): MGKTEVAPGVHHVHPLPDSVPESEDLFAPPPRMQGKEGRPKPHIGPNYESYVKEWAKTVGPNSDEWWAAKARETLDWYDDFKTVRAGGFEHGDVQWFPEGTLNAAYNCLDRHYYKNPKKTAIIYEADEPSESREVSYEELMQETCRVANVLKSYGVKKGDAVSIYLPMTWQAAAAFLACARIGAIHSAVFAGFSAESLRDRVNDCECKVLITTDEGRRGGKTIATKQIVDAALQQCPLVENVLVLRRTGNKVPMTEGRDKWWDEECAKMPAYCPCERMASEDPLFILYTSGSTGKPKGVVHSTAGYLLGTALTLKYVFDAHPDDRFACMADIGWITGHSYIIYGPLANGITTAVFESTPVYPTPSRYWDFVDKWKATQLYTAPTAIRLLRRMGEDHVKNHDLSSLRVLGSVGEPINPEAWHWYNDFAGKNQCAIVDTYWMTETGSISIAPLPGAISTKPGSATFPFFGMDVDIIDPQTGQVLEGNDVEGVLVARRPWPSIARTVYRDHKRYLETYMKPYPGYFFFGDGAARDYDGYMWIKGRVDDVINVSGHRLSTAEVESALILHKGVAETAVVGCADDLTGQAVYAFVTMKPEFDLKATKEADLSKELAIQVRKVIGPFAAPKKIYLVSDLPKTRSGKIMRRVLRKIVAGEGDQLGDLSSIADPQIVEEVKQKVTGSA
Briefly: Acs coupled kinetic pyrophosphate. Type of test: biochemical.

Test [3] deals with PfAcAS. The settings on record: cited from earlier work.
Test [4] has as its target human ACSS2 (Homo sapiens, UniProt Q9NR19). The test can be described thus: Acs coupled kinetic assay, human ACSS2. Type of test: biochemical.
The target in test [5] is T2, CaAcs2 (Candida albicans, UniProt Q8NJN3).
T2 sequence (Q8NJN3 1-671): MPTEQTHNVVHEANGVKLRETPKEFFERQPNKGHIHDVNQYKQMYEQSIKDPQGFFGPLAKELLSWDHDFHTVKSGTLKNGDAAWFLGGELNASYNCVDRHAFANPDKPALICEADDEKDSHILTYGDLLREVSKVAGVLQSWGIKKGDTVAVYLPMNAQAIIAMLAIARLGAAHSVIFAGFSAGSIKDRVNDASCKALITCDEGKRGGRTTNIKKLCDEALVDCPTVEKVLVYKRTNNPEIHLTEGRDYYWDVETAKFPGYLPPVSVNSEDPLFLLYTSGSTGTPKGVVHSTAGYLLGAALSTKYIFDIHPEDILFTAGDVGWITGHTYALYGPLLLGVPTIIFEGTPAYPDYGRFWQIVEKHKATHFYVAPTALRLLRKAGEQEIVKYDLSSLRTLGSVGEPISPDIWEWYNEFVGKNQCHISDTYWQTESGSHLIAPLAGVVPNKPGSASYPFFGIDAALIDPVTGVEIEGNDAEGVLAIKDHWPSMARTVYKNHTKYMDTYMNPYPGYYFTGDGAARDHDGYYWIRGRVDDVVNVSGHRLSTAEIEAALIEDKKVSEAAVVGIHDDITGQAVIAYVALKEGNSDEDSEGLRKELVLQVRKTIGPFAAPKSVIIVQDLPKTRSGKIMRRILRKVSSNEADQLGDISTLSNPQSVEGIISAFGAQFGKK
Briefly: Acs coupled kinetic assay, CaAcs2. In kind it is biochemical.

Test [6] concerns the target T3, Ca^CnAcs2 (Candida albicans, UniProt Q8NJN3, A319M/F357Y/G320A/Q430M/V371T).
T3 sequence (Q8NJN3 with tags, fused parts or gaps A319M/G320A/F357Y/V371T/V388A/Q430M): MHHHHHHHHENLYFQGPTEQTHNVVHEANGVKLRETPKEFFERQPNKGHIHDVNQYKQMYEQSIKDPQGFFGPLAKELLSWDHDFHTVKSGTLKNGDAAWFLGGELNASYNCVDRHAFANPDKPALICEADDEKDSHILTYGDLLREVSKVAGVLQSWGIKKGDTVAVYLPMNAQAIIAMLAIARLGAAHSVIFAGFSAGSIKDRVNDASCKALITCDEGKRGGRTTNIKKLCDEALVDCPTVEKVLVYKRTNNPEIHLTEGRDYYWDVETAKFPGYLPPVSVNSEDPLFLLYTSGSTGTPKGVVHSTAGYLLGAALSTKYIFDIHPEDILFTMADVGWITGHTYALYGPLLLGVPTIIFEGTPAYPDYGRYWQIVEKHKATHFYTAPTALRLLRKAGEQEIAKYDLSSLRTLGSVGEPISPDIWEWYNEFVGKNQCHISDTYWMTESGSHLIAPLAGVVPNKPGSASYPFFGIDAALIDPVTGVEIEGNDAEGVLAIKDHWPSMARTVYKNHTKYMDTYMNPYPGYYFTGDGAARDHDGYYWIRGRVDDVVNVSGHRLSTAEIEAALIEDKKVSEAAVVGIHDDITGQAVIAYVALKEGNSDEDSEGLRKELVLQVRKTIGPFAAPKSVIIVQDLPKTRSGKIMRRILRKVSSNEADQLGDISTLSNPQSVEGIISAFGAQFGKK
The test can be described thus: Acs assay, Ca^CnAcs2 mutant enzyme. Particulars: for IC50: read-out: IC50 Ca^CnAcs2.

Test [7] deals with T1, CnAcs1. The settings on record: cited from earlier work; for IC50: read-out: IC50 CnAcs1, alkyl-AMP esters.
Test [8] has as its target T2, CaAcs2. The settings on record: read-out: IC50 CaAcs2; cited from earlier work.

Converted amounts (≈) assume the structure as drawn. “Also recorded” adds a separate entry of the source. Read-outs that look alike come from different tables or passages of the source.

human ACSS2, sequence (Q9NR19 whole entry): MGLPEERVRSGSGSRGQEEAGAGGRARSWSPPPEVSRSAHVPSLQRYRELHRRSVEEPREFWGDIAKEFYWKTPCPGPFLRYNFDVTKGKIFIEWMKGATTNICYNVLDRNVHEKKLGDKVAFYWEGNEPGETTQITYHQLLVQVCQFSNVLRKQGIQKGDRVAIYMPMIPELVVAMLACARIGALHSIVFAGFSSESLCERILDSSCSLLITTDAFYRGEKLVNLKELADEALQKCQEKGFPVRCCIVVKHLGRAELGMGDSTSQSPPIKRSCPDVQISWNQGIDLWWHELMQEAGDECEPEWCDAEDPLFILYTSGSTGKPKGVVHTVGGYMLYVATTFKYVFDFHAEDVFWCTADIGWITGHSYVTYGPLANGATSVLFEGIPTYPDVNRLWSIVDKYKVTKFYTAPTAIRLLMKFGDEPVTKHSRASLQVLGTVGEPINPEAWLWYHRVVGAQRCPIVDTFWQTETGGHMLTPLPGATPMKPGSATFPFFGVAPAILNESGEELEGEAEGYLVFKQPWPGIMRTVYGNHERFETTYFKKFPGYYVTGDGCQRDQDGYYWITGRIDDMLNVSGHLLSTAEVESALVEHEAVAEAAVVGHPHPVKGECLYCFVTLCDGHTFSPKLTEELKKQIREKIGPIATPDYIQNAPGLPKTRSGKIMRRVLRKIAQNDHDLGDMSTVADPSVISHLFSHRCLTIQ

As to `CCN(CC)S(=O)(=O)c1ccc(Cl)c(C(=O)Nc2ccc3nc(C)sc3c2)c1` [MMV019721], the “antifungal activity against C. neoformans (in words)” value in test [1] is “no activity”. The “inhibition of CnAcs1 (in words)” value in test [2] is given as “did not inhibit CnAcs1 below its solubility limit; also recorded: does not inhibit CnAcs1 at the maximum soluble concentration; also recorded: does not significantly inhibit CnAcs1”. For the same compound, the “kinetic mechanism of PfAcAS inhibition” value in test [3] was “competitive with ATP and uncompetitive with CoA”.

For the compound `O=C(NNC(=O)c1csnn1)c1ccc(Cl)cc1` [MMV084978], the “MIC toward C. neoformans” value in test [1] (medium not stated) stood at 64 µg/mL (≈ 226 µM). For the same compound, the “fold higher IC50 toward ACSS2 than PfAcAS” value in test [4] is on record as 50 fold. Further, the “fold higher IC50 toward CnAcs1 than PfAcAS” value is on record as ~ 8 fold in test [2] and 8 fold in test [2] (listed as MMV0894978). Further, the results for the “kinetic mechanism of CnAcs1 inhibition” value in test [2] and in test [2] (listed as MMV089478) were “uncompetitive” and “uncompetitive inhibitor of CnAcs1”, respectively. Besides, the Ki in test [2] (read-out: Ki with CnAcs1, uncompetitive model, CoA varied) worked out at 4.1 µM. The “kinetic mechanism of PfAcAS inhibition” value in test [3] was “uncompetitive inhibitor with respect to ATP and CoA”. Further, the IC50 is 0.37 µM in test [3] (read-out: IC50 PfAcAS) and 88 ± 21 µM in test [6]. In test [5], the “inhibition of CaAcs2 (in words)” value was “did not inhibit CaAcs2”. Besides, the “maximum inhibition of Ca^CnAcs2” value in test [6] came out at 93%.

With `COC(=O)c1cccc(N2N=C(C)C(C(=O)Nc3cccc(C(C)(F)F)c3)C2=O)c1` (stereo not drawn) [MTB-9655], the “inhibition of CnAcs1 (in words)” value in test [2] is given as “no activity against CnAcs1”.

For `CCCCOP(=O)(O)OCC1OC(n2cnc3c(N)ncnc32)C(O)C1O` (stereo not drawn) [butyl], in test [7], the “decrease in potency relative to ethyl-AMP” value is on record as more than 50 fold.

As for `CN(Cc1cccc(-c2ccc(F)cc2)c1)Cc1cc(C2CC2)on1` [compound 3], the “inhibition of CnAcs1 (in words)” value in test [2] is recorded as “no activity against CnAcs1”.

In the case of `CC(C)c1cc(CN(C)C(=O)c2cccc(-c3ccc(F)cc3)c2)no1` [compound 5], the “inhibition of CnAcs1 (in words)” value in test [2] is “eliminated inhibition entirely”.

Take `Cc1cc(CN(C)C(=O)c2cccc(-c3ccc(F)cc3)c2)no1` [compound 6]: the “inhibition of CnAcs1 (in words)” value in test [2] is “much less potent than 2”. In addition, in test [2] (read-out: inhibition of CnAcs1), the inhibition at 100 µM stood at 50%.

For `CN(Cc1ccon1)C(=O)c1cccc(-c2ccc(F)cc2)c1` [compound 7], in test [2], the “inhibition of CnAcs1 (in words)” value is “completely inactive”.

Turning to `O=C(NCc1cc(C2CC2)on1)c1cccc(-c2ccc3c(c2)CCO3)c1` [compound 8], the “inhibition of CnAcs1 (in words)” value in test [2] is recorded as “no activity against CnAcs1”.

In the case of `COc1ccc(-c2cccc(C(=O)N(C)Cc3cc(C4CC4)on3)c2)cc1` [compound 9], in test [2], the “inhibition of CnAcs1 (in words)” value was “activity that was similar to 1 and more potent than 2”.

In the case of `COc1ccccc1-c1cccc(C(=O)N(C)Cc2cc(C3CC3)on2)c1` [compound 10], the “inhibition of CnAcs1 (in words)” value in test [2] was “eliminated activity”.

Take `CN(Cc1cc(C2CC2)on1)C(=O)c1cccc(-c2ccccc2)c1` [compound 12]: the “inhibition of CnAcs1 (in words)” value in test [2] was “no activity”.

`Nc1ncnc2c1ncn2[C@@H]1O[C@H](COP(=O)(O)OC2CC2)[C@@H](O)[C@H]1O` [cyclopropyl-AMP ester]: the IC50 in test [7] was 9 µM.

As to `CCOP(=O)(O)OC[C@H]1O[C@@H](n2cnc3c(N)ncnc32)[C@H](O)[C@@H]1O` [ethyl-AMP], the IC50 was 8 µM in test [7], 11 ± 5 µM in test [8] and 19 ± 7 µM in test [6].

In the case of `CC(C)OP(=O)(O)OCC1OC(n2cnc3c(N)ncnc32)C(O)C1O` (stereo not drawn) [isopropyl-AMP ester], in test [2], the “inhibition of CnAcs1 (in words)” value was “equivalent to that of the cyclopropyl-AMP ester”.

For `COP(=O)(O)OCC1OC(n2cnc3c(N)ncnc32)C(O)C1O` (stereo not drawn) [methyl-AMP ester], in test [2], the “inhibition of CnAcs1 (in words)” value was “completely inactive”.

As for `CCCOP(=O)(O)OC[C@H]1O[C@@H](n2cnc3c(N)ncnc32)[C@H](O)[C@@H]1O` [propyl], the “decrease in potency relative to ethyl-AMP” value in test [7] was 3 fold.

As a reminder, the Ki is a measure of affinity in units of concentration, obtained from inhibition or displacement. Usually IC50 stands for the concentration that inhibits the measured activity by half. As usually defined, the inhibition is the percentage by which the read-out fell short of the control.
